In brackets after ≈: the same amount, converted by molar mass. Activity calls are given as the source filed them. The calls are words filed in the database; no cut-off is given here.
What was measured:
[1] = tested on: Enterococcus faecalis; experiment: microbe, parasite or virus in culture; format: functional; details: SF23-1, time 20 hrs
Description: Antimicrobial activity against Enterococcus faecalis SF23-1 harboring erythromycin-resistance rRNA methylase B, tetracycline efflux protein L and chloramphenicol-florfenicol resistance methylase assessed as inhibition of visible growth of bacteria incubated for 20 hrs by broth microdilution method

[2] = tested on: Streptococcus suis; experiment: Antimicrobial activity against Streptococcus suis P1/7 assessed as inhibition of visible growth of bacteria incubated for 20 hrs by broth microdilution method; format: functional
[3] = tested on: Staphylococcus aureus; experiment: Antimicrobial activity against Staphylococcus aureus YZSA-21 harboring erythromycin resistance rRNA methylase C assessed as inhibition of visible growth of bacteria incubated for 20 hrs by broth microdilution method; format: functional
[4] = tested on: Staphylococcus aureus; experiment: Antimicrobial activity against Staphylococcus aureus YZSA-24 harboring erythromycin resistance rRNA methylase C and methicillin resistance gene resistance locus assessed as inhibition of visible growth of bacteria incubated for 20 hrs by broth microdilution method; format: functional
[5] = tested on: Staphylococcus aureus; experiment: microbe, parasite or virus in culture; format: functional; details: M92-1, time 20 hrs
Description: Antimicrobial activity against Staphylococcus aureus M92-1 harboring erythromycin resistance rRNA methylase B, tetracycline efflux protein L and oxazolidinone-phenicol transferable resistance gene assessed as inhibition of visible growth of bacteria incubated for 20 hrs by broth microdilution method

[6] = tested on: Staphylococcus aureus; experiment: microbe, parasite or virus in culture; format: functional; details: M147-2, time 20 hrs
Description: Antimicrobial activity against Staphylococcus aureus M147-2 harboring erythromycin resistance rRNA methylase B, tetracycline efflux protein L and chloramphenicol-florfenicol resistance methylase assessed as inhibition of visible growth of bacteria incubated for 20 hrs by broth microdilution method

[7] = tested on: Enterococcus faecium; experiment: Antimicrobial activity against Enterococcus faecium MC38 harboring erythromycin resistance rRNA methylase B and oxazolidinone-phenicol transferable resistance gene assessed as inhibition of visible growth of bacteria incubated for 20 hrs by broth microdilution method; format: functional
[8] = tested on: Enterococcus faecalis; experiment: Antimicrobial activity against Enterococcus faecalis JH2-2 assessed as inhibition of visible growth of bacteria incubated for 20 hrs by broth microdilution method; format: functional
[9] = tested on: Streptococcus suis; experiment: microbe, parasite or virus in culture; format: functional; details: SH0918, time 20 hrs
Description: Antimicrobial activity against Streptococcus suis SH0918 harboring erythromycin-resistance rRNA methylase B, tetracycline efflux protein O and oxazolidinone phenicol transferable resistance gene assessed as inhibition of visible growth of bacteria incubated for 20 hrs by broth microdilution method

[10] = tested on: Escherichia coli; experiment: Antimicrobial activity against Escherichia coli ATCC 25922 assessed as inhibition of visible growth of bacteria incubated for 20 hrs by broth microdilution method; format: functional
[11] = tested on: Salmonella enteritidis; experiment: Antimicrobial activity against Salmonella enteritis S1 assessed as inhibition of visible growth of bacteria incubated for 20 hrs by broth microdilution method; format: functional, Salmonella enterica subsp. enterica serovar Enteritidis; details: Salmonella enterica
[12] = tested on: Klebsiella pneumoniae; experiment: Antimicrobial activity against Klebsiella pneumoniae 9-1 assessed as inhibition of visible growth of bacteria incubated for 20 hrs by broth microdilution method; format: functional
[13] = tested on: Acinetobacter baumannii; experiment: Antimicrobial activity against Acinetobacter baumannii AB11 assessed as inhibition of visible growth of bacteria incubated for 20 hrs by broth microdilution method; format: functional
[14] = tested on: Acinetobacter baumannii; experiment: Antimicrobial activity against Acinetobacter baumannii 7979 assessed as inhibition of visible growth of bacteria incubated for 20 hrs by broth microdilution method; format: functional
[15] = tested on: Pseudomonas aeruginosa; experiment: Antimicrobial activity against Pseudomonas aeruginosa PA14 assessed as inhibition of visible growth of bacteria incubated for 20 hrs by broth microdilution method; format: functional
[16] = tested on: Staphylococcus aureus; experiment: Drug resistance, ratio of MIC for Staphylococcus aureus ATCC 29213 measured after 28 days to MIC for Staphylococcus aureus ATCC 29213 measured after 20 hrs; format: functional
[17] = Cytotoxicity against human HEp-2 cells assessed as reduction in cell viability incubated for 48 hrs by CCK8 assay; format: toxicity, cell-based
[18] = Cytotoxicity against human HEp-2 cells assessed as cell viability at 16 times of MIC incubated for 48 hrs by CCK8 assay (reference value: 100 %); format: toxicity, cell-based; details: read-out: Activity
[19] = Cytotoxicity against human HEp-2 cells assessed as cell viability at 8 times of MIC incubated for 48 hrs by CCK8 assay (reference value: 100 %); format: toxicity, cell-based; details: read-out: Activity
[20] = Cytotoxicity against human HEp-2 cells assessed as cell viability at 2 times of MIC incubated for 48 hrs by CCK8 assay (reference value: 100 %); format: toxicity, cell-based; details: read-out: Activity
[21] = Cytotoxicity against human Caco-2 cells assessed as cell viability at 8 times of MIC incubated for 48 hrs by CCK8 assay (reference value: 99.54 %); format: toxicity, cell-based; details: read-out: Activity
[22] = Hemolytic activity in Kunming mouse erythrocytes assessed as hemolysis at 16 times of MIC measured after 1 hrs by absorbance based assay relative to control; format: toxicity, cell-based, Erythrocyte; details: read-out: Activity
[23] = Hemolytic activity in Kunming mouse erythrocytes assessed as hemolysis at 8 times of MIC measured after 1 hrs by absorbance based assay relative to control; format: toxicity, cell-based, Erythrocyte; details: read-out: Activity
[24] = Acute toxicity in ICR mouse model assessed as effect on animal survival at 25 to 100 mg/kg, IG administered for 7 days; format: organism-based; details: in vivo, po, 168 h, dose 25-100 mg/kg, time 7 day
[25] = Acute toxicity in ICR mouse model assessed as change in body weight at 25 to 100 mg/kg, IG administered for 7 days; format: organism-based; details: in vivo, po, 168 h, dose 25-100 mg/kg, time 7 day
[26] = Acute toxicity in ICR mouse model assessed as change in liver pathology at 25 to 100 mg/kg, IG administered for 7 days by H and E staining based analysis; format: organism-based; details: in vivo, po, 168 h, dose 25-100 mg/kg, time 7 day
[27] = Acute toxicity in ICR mouse model assessed as change in lung pathology at 25 to 100 mg/kg, IG administered for 7 days by H and E staining based analysis; format: organism-based; details: in vivo, po, 168 h, dose 25-100 mg/kg, time 7 day
[28] = Acute toxicity in ICR mouse model assessed as change in kidney pathology at 25 to 100 mg/kg, IG administered for 7 days by H and E staining based analysis; format: organism-based; details: in vivo, po, 168 h, dose 25-100 mg/kg, time 7 day
[29] = tested on: Cell membrane; experiment: Disruption of cell membrane integrity in Staphylococcus aureus ATCC 29213 assessed as increase in red fluorescence intensity incubated for 4 hrs by SYTO-9/PI staining based LIVE/DEAD Baclight bacterial viability assay; format: subcellular
[30] = tested on: Cell membrane; experiment: Disruption of cell membrane integrity in Staphylococcus aureus ATCC 29213 assessed as appearance of rupture surface at 0.5 to 2 times of MIC by scanning electron microscopic analysis; format: subcellular
[31] = tested on: Staphylococcus aureus; experiment: Antibiofilm activity against Staphylococcus aureus ATCC 29213 assessed as eradication of preformed biofilm measured after 72 hrs by crystal violet staining based analysis; format: functional, organism-based
[32] = tested on: Staphylococcus aureus; experiment: Antibiofilm activity against Staphylococcus aureus ATCC 29213 assessed as eradication of preformed biofilm by measuring residual biomass at 2 microg/ml measured after 72 hrs by crystal violet staining based analysis relative to control; format: functional; details: dose 2 µg/ml
[33] = Metabolic stability in rat liver microsomes assessed as half-life at 100 uM preincubated for 5 mins followed by NADPH addition and measured upto 60 mins by LC-MS/MS analysis; format: ADME, Microsome; details: time < 65 min
[34] = Metabolic stability in mouse liver microsomes assessed as half-life at 100 uM preincubated for 5 mins followed by NADPH addition and measured upto 60 mins by LC-MS/MS analysis; format: ADME, Microsome; details: time < 65 min
[35] = Metabolic stability in human liver microsomes assessed as intrinsic clearance at 100 uM preincubated for 5 mins followed by NADPH addition and measured upto 60 mins by LC-MS/MS analysis; format: ADME, Microsome; details: time < 65 min, read-out: CLH
[36] = Metabolic stability in mouse liver microsomes assessed as intrinsic clearance at 100 uM preincubated for 5 mins followed by NADPH addition and measured upto 60 mins by LC-MS/MS analysis; format: ADME, Microsome; details: time < 65 min, read-out: CLH
[37] = Metabolic stability in mouse liver microsomes assessed as hepatic extraction ratio at 100 uM preincubated for 5 mins followed by NADPH addition and measured upto 60 mins by LC-MS/MS analysis; format: ADME, Microsome; details: time < 65 min, read-out: ERH
[38] = tested on: Staphylococcus aureus; experiment: (§1) Antibacterial activity against methicillin-resistant Staphylococcus aureus YZSA-24 infected in cyclophosphamide-induced neutrophil depleted female ICR mouse model of skin infection assessed as log reduction in bacterial load at 1 %, TOP preadministered with cyclophosphamide for 5 days followed by bacterial administration and measured after 25 hrs of compound administration relative to vehicle group; format: functional
[39] = tested on: Staphylococcus aureus; experiment: as §1, with “2.5” for “1”, “[…]” for “vehicle”; format: functional

## CC1C/C(=C\c2ccc(-c3ccc(Cl)c(C(F)(F)F)c3)s2)c2nc3ccccc3c(C(=O)O)c2C1 (racemic)
[1]
  MIC: 1 µg/mL (≈ 1.95 µM)
[2]
  MIC: 16 µg/mL (≈ 31.1 µM)
[3]
  MIC: 1 µg/mL (≈ 1.95 µM)
[4]
  MIC: 1 µg/mL (≈ 1.95 µM)
[5]
  MIC: 1 µg/mL (≈ 1.95 µM)
[6]
  MIC: 1 µg/mL (≈ 1.95 µM)
[7]
  MIC: 2 µg/mL (≈ 3.89 µM)
[8]
  MIC: 1 µg/mL (≈ 1.95 µM)
[9]
  MIC: 16 µg/mL (≈ 31.1 µM)
[10]
  MIC: > 128 µg/mL
[11]
  MIC: 128 µg/mL (≈ 249 µM)
[12]
  MIC: > 128 µg/mL
[13]
  MIC: > 128 µg/mL
[14]
  MIC: > 128 µg/mL
[15]
  MIC: > 128 µg/mL
[16]
  Ratio: 2
[17]
  CC50 at 48 h: 14.7 µg/mL (≈ 28.5 µM)
[18]
  viability at 48 h, 16 times of MIC: 44.5%
[19]
  viability at 48 h, 8 times of MIC: 82.5%
[20]
  viability at 48 h, 2 times of MIC: 93.7%
[21]
  viability at 48 h, 8 times of MIC: 72.8%
[22]
  hemolysis at 1 h, 16 times of MIC: 74%
[23]
  hemolysis at 1 h, 8 times of MIC: 5.4%
[24]
  Activity: Non-toxic
[25]
  Activity: Non-toxic
[26]
  Activity: Non-toxic
[27]
  Activity: Non-toxic
[28]
  Activity: Non-toxic
[29]
  Activity: Dose-dependent-effect
[30]
  Activity: Active
[31]
  Activity: Dose-dependent-effect
[32]
  Activity: 31.4%
[33]
  half-life at 100 µM: > 3.08 h
[34]
  half-life at 100 µM: > 3.08 h
[35]
  microsomal CLint at 100 µM: < 7.5 µL/min/mg
[36]
  microsomal CLint at 100 µM: < 7.5 µL/min/mg
[37]
  hepatic extraction ratio at 1 h, 100 µM: < 0.26
[38]
  Activity: 1.27 log10CFU/ml
[39]
  Activity: 2.3 log10CFU/ml

Source: ChEMBL document CHEMBL6078677, “Discovery and optimization of tetrahydroacridine derivatives as a novel class of antibiotics against multidrug-resistant Gram-positive pathogens by targeting type I signal peptidase and disrupting bacterial membrane” (Eur J Med Chem, 2025)
